Experimental data from US9346794B1, “Substituted 4-pyridones and their use as inhibitors of neutrophil elastase activity” (Boehringer Ingelheim International GmbH, priority 2012, dated 2016).

What follows are molecules tested against Human neutrophil elastase (Homo sapiens (Human), UniProt P08246) (assay: Human Neutrophil Elastase Assay). Settings: substrate MeOSuc-Ala-Ala-Pro-Val-AMC 250 μM, fluorescence, pH 7.5.
Assay type: biochemical
Procedure: Human Neutrophil Elastase Assay
All other materials were of the highest grade commercially available.
The following buffers were used: Compound buffer: 100 mM Tris, 500 mM NaCl, adjusted to pH 7.5; Assay buffer: 100 mM Tris, 500 mM NaCl, adjusted to pH 7.5, containing 0.01% BSA.
Assay conditions: Test compounds were prediluted in DMSO and subsequently in compound buffer (5% DMSO final). […] After inactivation of the enzyme, fluorescence intensities were measured at 380 nm excitation and 460 nm emission wavelengths.
Each plate contains wells with a high value control (DMSO+enzyme+substrate) and wells with a low value control (DMSO+inactivated enzyme+substrate). IC50 values were estimated using a sigmoidal concentration response curve with variable slope. Means of low values were taken as 0%, means of high values as 100%. IC50 values of selected compound in the Neutrophil Elastase assay: […]

Sequence of Human neutrophil elastase (P08246 30-247): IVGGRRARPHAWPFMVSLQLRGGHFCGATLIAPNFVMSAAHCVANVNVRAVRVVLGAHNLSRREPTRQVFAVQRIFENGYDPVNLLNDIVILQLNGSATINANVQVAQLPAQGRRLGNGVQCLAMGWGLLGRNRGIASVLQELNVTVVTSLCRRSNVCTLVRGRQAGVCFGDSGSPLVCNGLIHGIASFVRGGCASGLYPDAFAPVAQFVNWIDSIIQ

Row | SMILES | IC50 [nM]
1 | Cc1c(-c2ccnc(C(F)(F)F)c2)c(=O)c(C(=O)NCc2ccc(S(C)(=O)=NC#N)cc2)cn1C(C)C (racemic) [Example 3, 1-Isopropyl-2-methyl-4-oxo-2′-trifluoromethyl-1,4-dihydro-[3,4′]-bipyridinyl-5-carboxylic acid 4-(N-cyano-S-methylsulfonimidoyl)-benzylamide] | 4.7
2 | Cc1c(-c2cccc(C(F)F)c2)c(=O)c(C(=O)NCc2ccc(S(C)(=O)=NC#N)cc2)cn1-c1ccnn1C (stereo not drawn) [Example 7, 5-(3-Difluoromethyl-phenyl)-6-methyl-1-(2-methyl-2H-pyrazol-3-yl)-4-oxo-1,4-dihydro-pyridine-3-carboxylic acid 4-(N-cyano-S-methylsulfonimidoyl)-benzylamide] | 2.1
3 | Cc1c(-c2cccc(C(F)(F)F)c2)c(=O)c(C(=O)NCc2ccc(S(C)(=O)=NC#N)c(F)c2)cn1C(C)C (stereo not drawn) [Example 13] | 2.4
4 | Cc1c(-c2cccc(C(F)F)c2)c(=O)c(C(=O)NCc2ccc(S(=O)(=NC#N)C(C)C)cc2)cn1-c1ccnn1C (stereo not drawn) [Example 37] | < 1
5 | Cc1noc(-n2cc(C(=O)NCc3ccc(S(C)(=O)=NC#N)cc3)c(=O)c(-c3cccc(C(F)(F)F)c3)c2C)c1C (stereo not drawn) [Example 49] | 7.3
6 | Cc1c(-c2cccc(C(F)F)c2)c(=O)c(C(=O)NCc2ccc(S(C)(=O)=NC#N)cc2F)cn1C(C)C (stereo not drawn) [Example 33] | 2.5
7 | Cc1c(-c2cccc(C(F)F)c2)c(=O)c(C(=O)NCc2ccc(S(C)(=O)=NC#N)cc2)cn1C1CCC1 (stereo not drawn) [Example 6, 5-(3-Difluoromethyl-phenyl)-1-cyclobutyl-6-methyl-4-oxo-1,4-dihydro-pyridine-3-carboxylic acid 4-(N-cyano-S-methylsulfonimidoyl)-benzylamide] | 2.4
8 | CCn1cc(C(=O)NCc2ccc(S(=O)(=NC#N)C(C)C)cc2)c(=O)c(-c2cccc(C(F)F)c2)c1C (stereo not drawn) [Example 30] | < 1
9 | CCS(=O)(=NC#N)c1ccc(CNC(=O)c2cn(-c3ccnn3C)c(C)c(-c3cccc(C(F)F)c3)c2=O)cc1 (stereo not drawn) [Example 36] | 1
10 | Cc1c(-c2cccc(C(F)(F)F)c2)c(=O)c(C(=O)NCc2ccc(S(=O)(=NC#N)C(C)C)cc2)cn1-c1ccnn1C (stereo not drawn) [Example 19] | 1
11 | Cc1c(-c2cccc(C(F)(F)F)c2)c(=O)c(C(=O)NCc2ccc(S(C)(=O)=NC#N)cc2)cn1-c1ccnn1C (stereo not drawn) [Example 8, 6-Methyl-1-(2-methyl-2H-pyrazol-3-yl)-4-oxo-5-(3-trifluoromethyl-phenyl)-1,4-dihydro-pyridine-3-carboxylic acid 4-(N-cyano-S-methylsulfonimidoyl)-benzylamide] | 2.4

Other lines, results leading:

Row | IC50 [nM] | SMILES
12 | 2.1 | CCS(=O)(=NC#N)c1ccc(CNC(=O)c2cn(C3CC3)c(C)c(-c3cccc(C(F)(F)F)c3)c2=O)cc1 (single isomer, unassigned) [Example 21B]
13 | 4.1 | CCn1cc(C(=O)NCc2ccc(S(C)(=O)=NC#N)cc2)c(=O)c(-c2cccc(C(F)(F)F)c2)c1C (single isomer, unassigned) [Example 4A, 1-Ethyl-6-methyl-4-oxo-5-(3-trifluoromethyl-phenyl)-1,4-dihydro-pyridine-3-carboxylic acid 4-(N-cyano-S-methylsulfonimidoyl)-benzylamide]
14 | 5.1 | Cc1c(-c2ccnc(C(F)(F)F)c2)c(=O)c(C(=O)NCc2ccc(S(C)(=O)=NC#N)cc2)cn1C(C)C (single isomer, unassigned) [Example 3B, 1-Isopropyl-2-methyl-4-oxo-2′-trifluoromethyl-1,4-dihydro-[3,4′]-bipyridinyl-5-carboxylic acid 4-(N-cyano-S-methylsulfonimidoyl)-benzylamide]
15 | 1.3 | Cc1c(-c2cccc(C(F)F)c2)c(=O)c(C(=O)NCc2ccc(S(C)(=O)=NC#N)cc2)cn1C(C)C (stereo not drawn) [Example 1B, 5-(3-Difluoromethyl-phenyl)-1-isopropyl-6-methyl-4-oxo-1,4-dihydro-pyridine-3-carboxylic acid 4-(N-cyano-S-methylsulfonimidoyl)-benzylamide]
